Converted amounts (≈) assume the structure as drawn. Numbered stars: 1 amine (or outer) side, 2 acyl side, 3 side chain; on linkers, the order of the positions; unused ones are H or OH. Bridge positions count the residues as written; N and C are the ends. Square brackets hold non-standard residues; d marks the D form. Peptide text beside a SMILES is read from it. * marks the point of attachment. hTyr(3S-OH,4S-OH,3'-OSO3H) = N[C@H](C(=O)O)[C@H](O)[C@@H](O)c1ccc(O)c(OS(=O)(=O)O)c1; Orn(4R-OH,5R-OH) = O=C([C@H](C[C@@H](O)[C@@H](O)N[*:3])N[*:1])[*:2]; Pro(3S-OH,4S-Me) = C[C@H]1CN[C@H](C(=O)O)[C@H]1O; X1 = CCCCCOc1ccc(-c2cc(-c3ccc(C(=O)*)cc3)no2)cc1; Gln(3R-OH) = NC(=O)C[C@@H](O)[C@H](N)C(=O)O; Hyp = O=C(O)[C@@H]1C[C@@H](O)CN1
Columns and labels:
[1] = Population pharmacokinetic modelling of micafungin in critically ill patients (NONMEM, plasma samples); format: in vivo, human
Excerpt: This is a non-interventional study conducted in critically ill adult patients treated in the intensive care units of the Department of Anaesthesiology, Intensive Care Medicine and Pain Therapy of the University Hospital Muenster in Germany. The collection of data and blood samples was approved by the ethics committee of the University of Muenster (Study Code 06-AnIt-11). […] Written informed consent was obtained from all patients or their representatives.
The study included 36 adult patients. Patient demographics and other clinical parameters were collected from the electronic patient charts of the intensive care unit. All patients received 100 mg micafungin intravenously once daily either as empiric or targeted therapy of suspected or proven infection. The decision to begin or end therapy was made by the physicians in charge of the intensive care units irrespective of the pharmacologic study.
Blood samples were collected from indwelling arterial catheters for analysis of micafungin concentrations. On day 1, plasma micafungin concentration was determined at 1, 4, 8, 12, 16 and 20 hours post application and as a trough level immediately before the next dose of micafungin after 24 hours. From day two of therapy, peak levels one hour after infusion and trough levels were collected.
Blood samples were exclusively taken from arterial lines into ethylenediaminetetraacetic acid (EDTA)-containing sample vials tubes (S-Monovette® 2.7 ml K3E, Sarstedt, Nümbrecht, Germany). Samples were immediately transported to the in-house laboratory and plasma was separated by centrifugation at 1600 x g (10 min) and kept and frozen at −80 °C until analysis.
Micafungin in human plasma was analyzed with reversed-phase high-performance liquid chromatography. 200 µl serum, 20 µl internal standard solution (anidulafungin 1 mg/ml in water), 20 µl 30% ZnSO4 x7H2O (w/v) in water and 700 µl methanol were vortex-mixed (5 sec) followed by centrifugation at 800 g for 3 min. 50 µl of the supernatant was injected on a 125 liquid chromatograph (Beckman Coulter GmbH, Krefeld, Germany) interfaced with a model 168 diode array detector. Chromatographic conditions: mobile phase: acetonitrile/50 mM ammonium acetate buffer pH 4.6, 50:50 (v/v); flow rate 1 ml/min at 45 °C; absorbance detection 271 nm; column: XTerra RP18, 3.5 µm, 150 × 4.6 mm (Waters GmbH, Eschborn, Germany).
Model building was performed using NONMEM (Version 7.3; ICON Development Solutions, Ellicott City, MD) with the ADVAN 6 subroutine and the FOCE + I estimation method. Visual predictive checks (pcVPC) and stepwise covariate model building (SCM) were performed with the PsN module (Version 4.6.0)[25]. Graphical output was created in R (version 3.4.0; R foundation for statistical computing, Vienna, Austria) with additional use of the Xpose package (version 4.5.3)[26].
The basic structural model was tested with the following compositions: One to three compartments with linear clearance, nonlinear (Michaelis Menten) clearance and a combination of both were tested.
As categorical covariate, sex was tested. Covariate influence was tested on central and peripheral volumes of distribution, and clearance. Covariate testing was performed using stepwise covariate modelling (SCM) in PsN with a 5% forward inclusion and 1% backward elimination criterion.

[2] = system: C. albicans; assay: Pharmacodynamic target evaluation (AUC/MIC) in the study population; format: in vivo, Candida albicans; conditions: fixed dose 100 mg once daily, post-hoc AUC 0-24 h per patient and day
Excerpt: (§1) The European Committee on Antimicrobial Susceptibility Testing (EUCAST) established the guideline for micafungin and Candida ssp. with species related clinical breakpoints for non-resistant strains. These breakpoints were used as surrogate for the minimal inhibitory concentration (MIC) for C. albicans, C. glabrata and C. parapsilosis. Proposed MICs are […], respectively.
(§2) Using the previously established population pharmacokinetic model, the AUC for each patient on each day of therapy was determined.

[3] = system: C. glabrata; assay: as above; format: in vivo, Candida glabrata; conditions: fixed dose 100 mg once daily, post-hoc AUC 0-24 h per patient and day
Excerpt: as §1, §2

[4] = system: C. parapsilosis; assay: as above; format: in vivo, Candida parapsilosis; conditions: fixed dose 100 mg once daily, post-hoc AUC 0-24 h per patient and day
Excerpt: as §1, §2

[5] = system: C. albicans; conditions: non-resistant strains; cited from earlier work
Excerpt: as §1

[6] = system: C. parapsilosis; conditions: non-resistant strains; cited from earlier work
Excerpt: as §1

[7] = system: C. albicans; set-up: method as in EUCAST; conditions: ref EUCAST; cited from earlier work
[8] = system: C. glabrata; set-up: method as in EUCAST; conditions: ref EUCAST; cited from earlier work
[9] = system: C. parapsilosis; set-up: method as in EUCAST; conditions: ref EUCAST; cited from earlier work
[10] = cited from earlier work
Procedure: (§3) Micafungin has a small volume of distribution (~119 ml/kg) and the drug is highly protein bound (>99%). The primary binding protein is albumin. […] The pharmacokinetics and pharmacodynamics of micaf ...

[11] = system: albumin; conditions: primary binding protein is albumin; cited from earlier work
Procedure: as §3

[12] = final population PK model estimate, 36 critically ill adult patients, 100 mg i.v. once daily

Compound: CCCCCOc1ccc(-c2cc(-c3ccc(C(=O)N[C@H]4C[C@@H](O)[C@@H](O)NC(=O)[C@@H]5[C@@H](O)[C@@H](C)CN5C(=O)[C@H]([C@H](O)CC(N)=O)NC(=O)[C@H]([C@H](O)[C@@H](O)c5ccc(O)c(OS(=O)(=O)O)c5)NC(=O)[C@@H]5C[C@@H](O)CN5C(=O)[C@H]([C@@H](C)O)NC4=O)cc3)no2)cc1 [micafungin] (X1-[Orn(4R-OH,5R-OH)]T[Hyp][hTyr(3S-OH,4S-OH,3'-OSO3H)][Gln(3R-OH)][Pro(3S-OH,4S-Me)]; lactam 1-C)
- Influence of renal replacement therapy on pharmacokinetics ([1]; CVVHDF, SLEDD, clearance and volumes of distribution): did not alter the pharmacokinetics
- Lower central volume of distribution in patients with SOFA >10 ([1]; categorical covariate effect, SOFA >10 vs less critically ill patients): 30.8%
- Lower clearance in patients with bilirubin >4 mg/dl ([1]; categorical covariate effect, bilirubin >4 mg/dl): 21.1%
- Central volume of distribution [1, 12]: 16.2 L
- Inter-compartmental clearance [1, 12]: 14.4 L/h
- Peripheral volume of distribution [1, 12]: 13.8 L
- clearance ([1]; human, iv, final population PK model estimate (two compartments, linear elimination), 36 critically ill adult patients, 100 mg i.v. once daily, plasma, HPLC-UV): 26 mL/min
- Accumulation of micafungin in plasma ([1]; up to 10 days of treatment, 100 mg i.v. once daily): No accumulation
- Adequacy of AUC/MIC ratio against EUCAST breakpoint [2]: adequate therapy intensities
- Adequacy of AUC/MIC ratio against EUCAST breakpoint [3]: adequate therapy intensities
- Adequacy of AUC/MIC ratio against EUCAST breakpoint [4]: does not seem suitable
- MIC (EUCAST breakpoint as surrogate) [5]: 16 µg/mL (≈ 12.6 µM)
- MIC (EUCAST breakpoint as surrogate) [6]: 2000 µg/mL (≈ 1570 µM)
- AUC/MIC target to reach stasis [7]: 2420
- AUC/MIC target to reach stasis [8]: 1283
- AUC/MIC target to reach stasis [9]: 285
- Volume of distribution [10]: ~ 119 ml/kg
- Linearity of pharmacokinetics ([10]; daily doses between 12.5 mg and 200 mg as well as 3 mg/kg and 8 mg/kg): Linear pharmacokinetics
- Protein bound [11]: > 99%

From paper PMC6882900, “Pharmacokinetics of Micafungin in Critically Ill Patients” (Scientific Reports, 2019)
